# In patent US4524075A, “Pharmaceutical formulations containing pseudomonic acid” (Beecham Group p.l.c., priority 1982, dated 1985):
# Assays:
# [1] = Stability test: storage at 30° or 37° C. for 12 months, amount of therapeutic agent remaining assayed at 2 and 12 months; format: physicochemical
# [2] = Stability in the presence of acid or of polyethylene glycol (general statements, no test described); format: physicochemical
# [3] = cited from earlier work
compound,measurement,setting,value
C/C(=C\C(=O)OCCCCCCCCC(=O)O)C[C@@H]1OC[C@H](C[C@@H]2O[C@H]2[C@@H](C)[C@H](C)O)[C@@H](O)[C@H]1O [Pseudomonic acid],% remaining after 2 months at 37° C.,[1],Dec
same,% remaining after 12 months at 30° C.,[1],Dec
same,% remaining after 12 months at 37° C.,[1],Dec
same,% remaining after 2 months at 30° C.,"[1]; storage, 1460 h",78%
same,"stability in the presence of polyethylene glycol, or a derivative thereof",[2],improved stability
same,stability in the presence of acid,[3],tend to undergo a rearrangement reaction in the presence of acid
